The record followed here is PMC7486443, “Generation of Phenothiazine with Potent Anti-TLK1 Activity for Prostate Cancer Therapy” (iScience, 2020).

Some targets named below: AAK1 (Homo sapiens, UniProt Q2M2I8); CAMK2A (Homo sapiens, UniProt Q9UQM7); CSF1R (Homo sapiens, UniProt P07333); CSF1R-autoinhibited (Homo sapiens, UniProt P07333); CSNK2A1 (Homo sapiens, UniProt P68400); DAPK1 (Homo sapiens, UniProt P53355); EGFR(E746-A750del) (Homo sapiens, UniProt P00533, DEL746-750); FGFR3(G697C) (Homo sapiens, UniProt P22607, G697C); GRK7 (Homo sapiens, UniProt Q8WTQ7); MAPKAPK2 (Homo sapiens, UniProt P49137); MUSK (Homo sapiens, UniProt O15146); PIK3CA(E542K) (Homo sapiens, UniProt P42336, E542K); RET(V804M) (Homo sapiens, UniProt P07949, V804M); TXK (Homo sapiens, UniProt P42681); ULK2 (Homo sapiens, UniProt Q8IYT8).

What all share (assay): biochemical
What all share (set-up): DiscoverX KINOMEscan scanMAX competition binding panel, single concentration, percent of control; remaining binding: dose or concentration left out as unconfirmed
What all share (details): KINOMEscan binding, percent of control; read-out: Table S4_SCANMAX REPORT - related to Fig. 1 / Percent Control

In assay [1] the target is T1, ABL1(Y253F)-phosphorylated (Homo sapiens, UniProt P00519, Y253F).
T1 construct: phosphorylated

Another assay has as its target T2, DLK (Homo sapiens, UniProt Q12852).
T2 construct: gene MAP3K12

Assay [2] has as its target T3, JAK1(JH2domain-pseudokinase) (Homo sapiens, UniProt P23458).
T3 construct: JH2domain-pseudokinase

EGFR(E746-A750del), sequence (P00533 with tags, fused parts or gaps DEL746-750): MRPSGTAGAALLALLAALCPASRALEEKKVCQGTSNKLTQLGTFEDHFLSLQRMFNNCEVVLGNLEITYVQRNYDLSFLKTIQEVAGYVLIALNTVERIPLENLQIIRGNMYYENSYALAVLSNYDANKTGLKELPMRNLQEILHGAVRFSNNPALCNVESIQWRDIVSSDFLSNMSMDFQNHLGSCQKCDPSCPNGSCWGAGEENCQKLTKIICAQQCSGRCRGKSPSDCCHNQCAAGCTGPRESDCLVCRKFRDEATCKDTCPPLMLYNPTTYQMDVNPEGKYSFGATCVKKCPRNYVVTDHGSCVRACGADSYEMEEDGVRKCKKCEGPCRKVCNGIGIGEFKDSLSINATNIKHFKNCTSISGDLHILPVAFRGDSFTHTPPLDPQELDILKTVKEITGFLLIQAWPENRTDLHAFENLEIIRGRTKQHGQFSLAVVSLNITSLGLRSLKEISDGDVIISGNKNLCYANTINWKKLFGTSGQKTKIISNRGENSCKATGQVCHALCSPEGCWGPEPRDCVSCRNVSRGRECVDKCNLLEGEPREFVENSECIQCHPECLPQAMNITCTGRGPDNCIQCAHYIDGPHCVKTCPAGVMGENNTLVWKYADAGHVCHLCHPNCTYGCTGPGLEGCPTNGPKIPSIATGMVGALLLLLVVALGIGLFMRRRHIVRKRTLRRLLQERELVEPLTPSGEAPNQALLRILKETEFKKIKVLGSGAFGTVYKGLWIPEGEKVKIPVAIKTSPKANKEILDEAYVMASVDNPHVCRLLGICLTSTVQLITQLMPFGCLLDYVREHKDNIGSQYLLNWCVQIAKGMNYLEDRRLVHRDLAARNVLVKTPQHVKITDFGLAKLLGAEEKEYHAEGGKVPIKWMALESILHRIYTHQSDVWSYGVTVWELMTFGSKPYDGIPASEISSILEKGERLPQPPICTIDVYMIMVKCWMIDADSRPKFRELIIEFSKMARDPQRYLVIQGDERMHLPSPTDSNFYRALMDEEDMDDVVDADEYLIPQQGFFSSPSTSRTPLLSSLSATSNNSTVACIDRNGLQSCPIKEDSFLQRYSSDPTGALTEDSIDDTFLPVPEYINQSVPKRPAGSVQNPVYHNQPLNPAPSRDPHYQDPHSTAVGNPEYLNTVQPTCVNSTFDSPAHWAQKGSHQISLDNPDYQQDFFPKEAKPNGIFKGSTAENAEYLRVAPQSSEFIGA
CSF1R-autoinhibited, sequence (P07333 whole entry): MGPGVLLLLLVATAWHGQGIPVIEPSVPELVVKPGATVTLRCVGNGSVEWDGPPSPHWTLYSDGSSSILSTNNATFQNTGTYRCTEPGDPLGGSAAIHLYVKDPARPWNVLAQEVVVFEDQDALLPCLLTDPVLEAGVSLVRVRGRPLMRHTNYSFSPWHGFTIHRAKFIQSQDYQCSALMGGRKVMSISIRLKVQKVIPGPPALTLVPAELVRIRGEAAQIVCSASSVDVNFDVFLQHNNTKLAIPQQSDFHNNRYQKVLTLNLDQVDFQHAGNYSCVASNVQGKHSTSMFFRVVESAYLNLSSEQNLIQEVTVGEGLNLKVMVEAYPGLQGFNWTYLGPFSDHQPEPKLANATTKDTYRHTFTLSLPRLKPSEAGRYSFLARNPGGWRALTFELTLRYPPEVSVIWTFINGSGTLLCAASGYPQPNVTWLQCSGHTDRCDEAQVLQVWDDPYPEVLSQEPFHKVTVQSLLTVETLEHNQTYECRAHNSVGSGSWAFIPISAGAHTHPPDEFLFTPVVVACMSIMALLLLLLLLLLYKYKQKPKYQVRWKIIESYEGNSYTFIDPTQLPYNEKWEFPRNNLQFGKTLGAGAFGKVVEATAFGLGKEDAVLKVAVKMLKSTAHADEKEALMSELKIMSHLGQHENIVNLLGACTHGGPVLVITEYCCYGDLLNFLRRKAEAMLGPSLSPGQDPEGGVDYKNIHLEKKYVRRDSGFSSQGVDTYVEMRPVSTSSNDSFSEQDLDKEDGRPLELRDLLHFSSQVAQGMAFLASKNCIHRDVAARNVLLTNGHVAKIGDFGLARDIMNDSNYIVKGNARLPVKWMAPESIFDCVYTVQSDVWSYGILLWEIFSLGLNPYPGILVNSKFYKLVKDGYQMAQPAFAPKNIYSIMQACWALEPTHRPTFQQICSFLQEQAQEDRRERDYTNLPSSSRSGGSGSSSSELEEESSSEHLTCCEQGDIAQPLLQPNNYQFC
CSF1R, sequence (P07333 whole entry): as above
MAPKAPK2, sequence (P49137 whole entry): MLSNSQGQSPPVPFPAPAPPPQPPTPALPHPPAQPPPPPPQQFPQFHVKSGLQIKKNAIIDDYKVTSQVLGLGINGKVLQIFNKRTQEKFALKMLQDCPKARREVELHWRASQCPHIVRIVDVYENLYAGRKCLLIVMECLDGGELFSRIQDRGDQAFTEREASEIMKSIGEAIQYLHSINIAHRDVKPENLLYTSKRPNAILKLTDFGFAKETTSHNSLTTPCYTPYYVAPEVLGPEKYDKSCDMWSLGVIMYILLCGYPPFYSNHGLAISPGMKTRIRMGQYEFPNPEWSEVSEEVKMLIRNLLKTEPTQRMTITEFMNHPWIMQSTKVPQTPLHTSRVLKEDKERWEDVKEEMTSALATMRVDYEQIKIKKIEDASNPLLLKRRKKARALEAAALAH
PIK3CA(E542K), sequence (P42336 whole entry E542K): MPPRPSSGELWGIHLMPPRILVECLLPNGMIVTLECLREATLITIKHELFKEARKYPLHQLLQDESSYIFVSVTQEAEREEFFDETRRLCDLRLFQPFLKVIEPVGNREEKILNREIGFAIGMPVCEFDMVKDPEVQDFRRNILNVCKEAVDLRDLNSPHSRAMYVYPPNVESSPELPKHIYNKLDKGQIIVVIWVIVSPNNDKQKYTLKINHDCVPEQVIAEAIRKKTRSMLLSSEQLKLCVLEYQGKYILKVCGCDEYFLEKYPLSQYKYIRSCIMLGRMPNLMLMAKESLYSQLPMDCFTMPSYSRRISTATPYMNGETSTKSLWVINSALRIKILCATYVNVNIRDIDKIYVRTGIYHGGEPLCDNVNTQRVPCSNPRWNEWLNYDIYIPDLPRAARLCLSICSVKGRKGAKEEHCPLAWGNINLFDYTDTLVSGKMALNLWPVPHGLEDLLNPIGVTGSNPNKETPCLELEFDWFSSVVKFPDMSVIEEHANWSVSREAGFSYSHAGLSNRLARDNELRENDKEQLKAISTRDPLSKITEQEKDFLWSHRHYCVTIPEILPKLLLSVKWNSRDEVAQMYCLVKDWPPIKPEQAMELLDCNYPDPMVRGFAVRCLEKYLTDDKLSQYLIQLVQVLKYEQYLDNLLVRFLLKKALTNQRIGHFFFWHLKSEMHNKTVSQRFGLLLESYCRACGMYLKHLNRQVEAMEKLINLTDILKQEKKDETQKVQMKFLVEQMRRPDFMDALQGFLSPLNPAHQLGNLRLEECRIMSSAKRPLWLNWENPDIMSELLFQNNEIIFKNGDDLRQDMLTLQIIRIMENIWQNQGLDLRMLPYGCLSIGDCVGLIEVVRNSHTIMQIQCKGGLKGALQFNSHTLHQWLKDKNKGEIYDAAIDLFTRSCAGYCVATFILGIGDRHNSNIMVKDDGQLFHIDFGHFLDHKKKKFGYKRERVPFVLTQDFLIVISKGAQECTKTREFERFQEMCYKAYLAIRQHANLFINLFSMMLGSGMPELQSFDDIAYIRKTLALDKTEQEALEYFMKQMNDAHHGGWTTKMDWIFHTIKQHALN
ULK2, sequence (Q8IYT8 whole entry): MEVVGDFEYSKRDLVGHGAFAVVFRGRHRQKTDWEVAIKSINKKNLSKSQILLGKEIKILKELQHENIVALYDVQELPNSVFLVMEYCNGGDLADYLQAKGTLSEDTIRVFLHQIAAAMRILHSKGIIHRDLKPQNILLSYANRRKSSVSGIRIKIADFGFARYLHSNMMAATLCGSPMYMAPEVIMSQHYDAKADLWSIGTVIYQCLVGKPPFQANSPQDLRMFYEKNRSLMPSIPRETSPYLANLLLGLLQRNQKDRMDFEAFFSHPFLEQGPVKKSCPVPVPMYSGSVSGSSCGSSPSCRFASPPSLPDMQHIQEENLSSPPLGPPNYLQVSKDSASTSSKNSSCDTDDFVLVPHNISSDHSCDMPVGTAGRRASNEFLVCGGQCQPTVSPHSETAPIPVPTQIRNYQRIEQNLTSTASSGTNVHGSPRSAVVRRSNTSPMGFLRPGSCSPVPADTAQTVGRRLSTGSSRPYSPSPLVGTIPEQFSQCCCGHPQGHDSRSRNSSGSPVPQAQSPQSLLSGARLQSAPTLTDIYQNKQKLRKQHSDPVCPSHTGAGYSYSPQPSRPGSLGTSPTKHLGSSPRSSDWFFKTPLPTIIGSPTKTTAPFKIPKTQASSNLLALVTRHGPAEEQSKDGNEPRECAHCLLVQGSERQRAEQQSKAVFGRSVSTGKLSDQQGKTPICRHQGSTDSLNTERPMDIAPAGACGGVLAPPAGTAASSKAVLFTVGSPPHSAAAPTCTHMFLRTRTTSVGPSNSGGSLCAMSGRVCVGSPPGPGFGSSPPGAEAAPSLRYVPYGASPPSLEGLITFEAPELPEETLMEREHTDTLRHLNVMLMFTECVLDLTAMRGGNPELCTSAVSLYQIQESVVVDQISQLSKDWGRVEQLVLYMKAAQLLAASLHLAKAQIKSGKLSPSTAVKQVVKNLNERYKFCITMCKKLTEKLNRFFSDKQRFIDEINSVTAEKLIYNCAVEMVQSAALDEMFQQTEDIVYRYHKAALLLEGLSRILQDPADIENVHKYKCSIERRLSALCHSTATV

As to `c1ccc2c(c1)Sc1ccccc1N2CCN1CCOCC1` [J54], the remaining binding on AAK1 was 80%; in assay [1], 79%; on CAMK2A, 78%; at CSF1R it was 100%; on CSF1R-autoinhibited, 85%; at CSNK2A1, 79%. Besides, the remaining binding on DAPK1 was found to be 99%; on DLK it was 100%; at EGFR(E746-A750del) it was 76%; at FGFR3(G697C), 100%; at GRK7, 100%; in assay [2] it was 99%. Further, the remaining binding worked out at 100% on MAPKAPK2; 100% at MUSK; 100% at PIK3CA(E542K); 100% at RET(V804M); 99% at TXK; 100% at ULK2.
